Measurements from PMC5327911 (Clinical Pharmacology : Advances and Applications, 2017).
Like-named read-outs stand apart in the source and are kept apart here.

What was measured:
[1] = format: in vivo, human
[2] = cited from earlier work
[3] = Safety; format: in vivo, human
[4] = Safety; format: in vivo, human; remark: listed apart in the source
[5] = test system: CYP3A4 or other CYP isoenzymes; conditions: cited from earlier work
[6] = cited from earlier work; remark: listed apart in the source
[7] = test system: CYP system; conditions: cited from earlier work
[8] = apixaban 10 mg + atenolol 100 mg vs apixaban 10 mg

**Q.** Which “Effect of apixaban on the PK of digoxin” value ([1]; apixaban 20 mg once daily, digoxin 0.25 mg once daily) does the source give for COc1ccc(-n2nc(C(N)=O)c3c2C(=O)N(c2ccc(N4CCCCC4=O)cc2)CC3)cc1 [Apixaban] here?
**A.** no effect

**Q.** And the “mean elimination half-life (t1/2)” value ([2]; apixaban in healthy subjects)?
**A.** ~ 12 hours

**Q.** What about the “lower apixaban AUCinf in subjects ≥120 kg” value ([2]; effect of body weight) of the same molecule?
**A.** 23%

**Q.** And the “lower apixaban Cmax in subjects ≥120 kg” value ([2]; effect of body weight)?
**A.** 31%

**Q.** And the “Number of AEs” value ([3]; apixaban 10 mg alone, none bleeding-related)?
**A.** five

**Q.** What about the “Deaths, serious AEs, major bleeding-related AEs” value ([3]; single doses of apixaban 10 mg, atenolol 100 mg, or both) of the same molecule?
**A.** No deaths, serious AEs, or major bleeding-related AEs

**Q.** And the “Decrease in apixaban AUC0–t when coadministered with atenolol” value [8]?
**A.** 15%

**Q.** What about the “Decrease in apixaban AUCinf when coadministered with atenolol” value [8] of the same molecule?
**A.** 15%

**Q.** What about the “Decrease in apixaban Cmax when coadministered with atenolol” value [8] of the same molecule?
**A.** 18%

**Q.** And the “Pharmacokinetic interaction between apixaban and atenolol” value (apixaban 10 mg, atenolol 100 mg, single doses)?
**A.** no clinically relevant interaction

**Q.** What about the AUCinf (apixaban, Treatment C, apixaban 10 mg + atenolol 100 mg, geometric mean (CV %), n=14) of the same molecule?
**A.** 1878 (33) ng·h/mL

**Q.** What about the AUC(0-inf) (human, plasma, oral, 10 mg) of the same molecule?
**A.** 2160 ng·h/mL

**Q.** What about the AUC(0-t) (human, plasma, oral, 10 mg) of the same molecule?
**A.** 2100 ng·h/mL

**Q.** What about the Cmax (human, plasma, oral, 10 mg) of the same molecule?
**A.** 216 ng/mL

**Q.** And the Tmax (human, plasma, oral, 10 mg)?
**A.** 3 h

**Q.** What about the half-life (human, plasma, oral, 10 mg) of the same molecule?
**A.** 13.9 h

**Q.** And the “Deaths, serious AEs, major bleeding-related AEs” value ([4]; digoxin 0.25 mg, then digoxin 0.25 mg + apixaban 20 mg once daily)?
**A.** No deaths, serious AEs, or major bleeding-related AEs

**Q.** What about the “inhibition or induction of CYP3A4 or other CYP isoenzymes” value [5] of the same molecule?
**A.** does not inhibit or induce

**Q.** And the “bound to serum proteins” value ([6]; apixaban)?
**A.** 87%

**Q.** What about the protein-bound [6] of the same molecule?
**A.** 87%

**Q.** With CC(C)NCC(O)COc1ccc(CC(N)=O)cc1 (centres unmarked) [Atenolol, atenolol] as the molecule, how does the “Tolerability of coadministration with apixaban” value ([3]; healthy subjects, atenolol 100 mg + apixaban 10 mg) read?
**A.** generally well tolerated

**Q.** Which “induction or inhibition of the CYP system” value [7] does the source give for C[C@H]1O[C@@H](O[C@H]2[C@@H](O)C[C@H](O[C@H]3[C@@H](O)C[C@H](O[C@H]4CC[C@@]5(C)[C@H](CC[C@@H]6[C@@H]5C[C@@H](O)[C@]5(C)[C@@H](C7=CC(=O)OC7)CC[C@]65O)C4)O[C@@H]3C)O[C@@H]2C)C[C@H](O)[C@@H]1O [Digoxin, digoxin] here?
**A.** does not appear to induce or inhibit

**Q.** And the Tmax ([1]; digoxin, Treatment B, digoxin 0.25 mg + apixaban 20 mg, day 20, median (min, max))?
**A.** 1.00 (1.0, 2.0) h

**Q.** And the AUC ([1]; human, serum, oral, 0.25 mg)?
**A.** 16.8 ng·h/mL

**Q.** What about the Cmax ([1]; human, serum, oral, 0.25 mg) of the same molecule?
**A.** 1.68 ng/mL

**Q.** And the “Tolerability of coadministration with apixaban” value ([4]; healthy subjects, digoxin 0.25 mg + apixaban 20 mg)?
**A.** generally well tolerated
